In US20260284014A1, “3,5-DIAMINOTRIAZOLE DERIVATIVES AND USES THEREOF FOR TREATING OCULAR DISEASES” (CENTRE NATIONAL DE LA RECHERCHE SCIENTIFIQUE, priority 2023, published 2026):
“Also recorded” adds a separate entry of the source.

Assays:
ARPE-19 cells = experiment: Cell viability (XTT assay); format: cell-based; settings: Homo sapiens, 48 h, read-out: A. Safety IC50 on ARPE-19 cells
Experimental: ARPE-19 cells were incubated in a 96-well plate with different effectors for 48 hours. Fifty microliters of sodium 3′-[1-phenylaminocarbonyl)-3,4-tetrazolium]-bis(4-methoxy-6-nitro) benzene sulfonic acid hydrate (XTT) reagent was added to each well. The test is based on the cleavage of the yellow tetrazolium salt XTT to form an orange formazan dye by metabolically active cells. This bio-reduction occurs in viable cells only and is associated with NAD(P)H production through glycolysis. Therefore, the amount of formazan dye measured at 490 nm, correlates directly with the number of metabolically active cells reflecting cell proliferation, viability, and cytotoxicity. Each assay was performed in quadruplicate.
(§1) All compounds were evaluated in different experiments. Results are represented as the mean of three independent experiments. A. ARPE-19 cells were treated with dose response of compound for 48 h. Values are reported as IC50 measured with the XTT assay. B and C. ARPE-19 cells were treated with 5 μM (B) or 1 μM (C) compound then with 200 μM H2O2 for 2 h. ROS were analyzed by cytometry. […] As illustrated in FIG. 1A. D. ARPE-19 cells were treated with 2.5 μM compound for 48 h and the level of CXCL1 mRNA was evaluated by qPCR. […] As illustrated in FIG. 1B. E. TIME cells were pre-treated with 2.5 μM compound for 1 h then stimulated with 100 ng/ml CXCL8 for 15 min p-ERK levels were analyzed by immunoblotting. HSP90 served as loading control. […] As illustrated in FIG. 1C.

ROS = ROS labeling by cytometry after H2O2; format: cell-based; settings: Homo sapiens, ARPE-19; for inhibition at 1 µM: 1 μM compound then 200 μM H2O2 for 2 h, read-out: C. ROS inhibition 1 μM - ARPE-19 cells; for inhibition at 5 µM: 5 μM compound then 200 μM H2O2 for 2 h, read-out: B. ROS inhibition 5 μM - ARPE-19 cells
Experimental: ARPE-19 cells were treated with MCK349 30 minutes then with 200 μM H2O2 for 2 h. 10 μM DCF-DA (2′,7′-Dichlorofluorescein diacetate) were added on cell media for 30 min. Cells were rinsed then detached (trypsin) and resuspended in PBS 0.5% BSA and 2 mM EDTA. The cells are analyzed by cytometry (ROS labeled with DCFDA-FITC).
as §1

ERK activation (p-ERK) = experiment: p-ERK immunoblotting after CXCL8 stimulation; format: cell-based; settings: 2.5 μM compound 1 h then 100 ng/ml CXCL8 for 15 min; read-out: E. p-ERK inhibition - TIME
Experimental: Cells were lysed in buffer containing 3% SDS, 10% glycerol and 0.825 mM Na2HPO4. 30 to 50 μg of proteins separated on 10% SDS-PAGE, transferred onto a PVDF membrane and then exposed to the appropriate antibodies. Proteins were visualized with the ECL system using horseradish peroxidase-conjugated anti-rabbit or anti-mouse antibodies.
as §1

[1] = test system: ocular (retinal) neo-angiogenesis; experiment: Hypoxia-induced retinal neo-angiogenesis in zebrafish; format: in vivo; settings: hypoxia 5% oxygen 72 h, 0.25, 0.5, or 1 μM
Experimental: All animal experiments were approved by the Experimental Animal Ethical Committee. Transgenic zebrafish embryos (fli: EGFP, blood vessels marked in GFP) were raised at 28° C. under standard experimental conditions. Zebrafish embryos at the age of 24 hpf were incubated in aquarium water containing 0.2 mmol/L 1-phenyl-2-thio-urea (PTU, Sigma). At 48-hpf, zebrafish embryos were placed for 72 h in normoxia (Nx) or hypoxia 5% oxygen […], in the presence of treatment. Retinal neo-angiogenesis was analyzed by fluorescent confocal microscope and quantified by ImageJ.

Nc1nc(Nc2ccc(Cl)cc2)nn1Cc1cccc(Br)c1 [MCK344, 1-(3-bromobenzyl)-N^3-(4-chlorophenyl)-1H-1,2,4-triazole-3,5-diamine]
IC50 (ARPE-19 cells): > 25 µM
inhibition at 1 µM (ROS): ≥ 50%
inhibition at 5 µM (ROS): ≥ 50%
inhibition at 2.5 µM (ERK activation (p-ERK)): ≥ 50%
ocular (retinal) neo-angiogenesis in zebrafish [1]: inhibit ocular (retinal) neo-angiogenesis; also recorded: inhibit ocular neoangiogenesis

CC(C)c1ccc(Cn2nc(Nc3ccccc3)nc2N)cc1 [MCK263, 1-(4-isopropylbenzyl)-N^3-phenyl-1H-1,2,4-triazole-3,5-diamine]
IC50 (ARPE-19 cells): > 25 µM
inhibition at 1 µM (ROS): ≥ 50%
inhibition at 5 µM (ROS): ≥ 50%
inhibition at 2.5 µM (ERK activation (p-ERK)): ≥ 50%
ocular (retinal) neo-angiogenesis in zebrafish [1]: inhibit ocular (retinal) neo-angiogenesis; also recorded: inhibit ocular neoangiogenesis

CC(C)c1ccc(Cn2nc(N)nc2Nc2ccccc2)cc1 [MCK262, 1-(4-isopropylbenzyl)-N^5-phenyl-1H-1,2,4-triazole-3,5-diamine]
IC50 (ARPE-19 cells): > 25 µM
inhibition at 1 µM (ROS): ≥ 50%
inhibition at 5 µM (ROS): ≥ 50%
inhibition at 2.5 µM (ERK activation (p-ERK)): ≥ 50%

Nc1nc(Nc2ccccc2)n(Cc2cccc(Br)c2)n1 [MCK339, 1-(3-bromobenzyl)-N^5-phenyl-1H-1,2,4-triazole-3,5-diamine]
IC50 (ARPE-19 cells): > 25 µM
inhibition at 1 µM (ROS): < 50%
inhibition at 5 µM (ROS): ≥ 50%
inhibition at 2.5 µM (ERK activation (p-ERK)): < 50%

Nc1nc(Nc2ccc(Cl)cc2)n(Cc2cccc(Br)c2)n1 [MCK343, 1-(3-bromobenzyl)-N^5-(4-chlorophenyl)-1H-1,2,4-triazole-3,5-diamine]
IC50 (ARPE-19 cells): > 25 µM
inhibition at 1 µM (ROS): < 50%
inhibition at 5 µM (ROS): ≥ 50%
inhibition at 2.5 µM (ERK activation (p-ERK)): ≥ 50%

Nc1nc(Nc2ccccn2)nn1Cc1ccc([N+](=O)[O-])cc1 [MCK290, 1-(4-nitrobenzyl)-N^3-(pyridin-2-yl)-1H-1,2,4-triazole-3,5-diamine]
IC50 (ARPE-19 cells): > 25 µM
inhibition at 1 µM (ROS): ≥ 50%
inhibition at 5 µM (ROS): ≥ 50%
inhibition at 2.5 µM (ERK activation (p-ERK)): ≥ 50%

Nc1nc(Nc2ccccn2)nn1Cc1ccccc1[N+](=O)[O-] [MCK289, 1-(2-nitrobenzyl)-N^3-(pyridin-2-yl)-1H-1,2,4-triazole-3,5-diamine]
IC50 (ARPE-19 cells): > 25 µM
inhibition at 1 µM (ROS): ≥ 50%
inhibition at 5 µM (ROS): ≥ 50%
inhibition at 2.5 µM (ERK activation (p-ERK)): < 50%

Nc1nc(Nc2ccccn2)nn1Cc1ccccc1 [MCK253, 1-benzyl-N^3-(pyridin-2-yl)-1H-1,2,4-triazole-3,5-diamine]
IC50 (ARPE-19 cells): > 25 µM
inhibition at 1 µM (ROS): < 50%
inhibition at 5 µM (ROS): < 50%
inhibition at 2.5 µM (ERK activation (p-ERK)): < 50%

Nc1nc(Nc2ccccc2)nn1Cc1cc(F)cc(F)c1 [MCK274, 1-(3,5-difluorobenzyl)-N^3-phenyl-1H-1,2,4-triazole-3,5-diamine]
IC50 (ARPE-19 cells): > 25 µM
inhibition at 1 µM (ROS): ≥ 50%
inhibition at 5 µM (ROS): ≥ 50%
inhibition at 2.5 µM (ERK activation (p-ERK)): < 50%

COc1cccc(Cn2nc(Nc3ccccc3)nc2N)c1 [MCK261, 1-(3-methoxybenzyl)-N^3-phenyl-1H-1,2,4-triazole-3,5-diamine]
IC50 (ARPE-19 cells): > 25 µM
inhibition at 1 µM (ROS): < 50%
inhibition at 5 µM (ROS): ≥ 50%
inhibition at 2.5 µM (ERK activation (p-ERK)): ≥ 50%

COc1ccc(Nc2nc(N)n(Cc3cccc(Br)c3)n2)cc1 [MCK340, 1-(3-bromobenzyl)-N^3-(4-methoxyphenyl)-1H-1,2,4-triazole-3,5-diamine]
IC50 (ARPE-19 cells): > 25 µM
inhibition at 1 µM (ROS): < 50%
inhibition at 5 µM (ROS): < 50%
inhibition at 2.5 µM (ERK activation (p-ERK)): < 50%

Nc1nc(Nc2ccccc2)nn1Cc1ccc([N+](=O)[O-])cc1 [MCK288]
IC50 (ARPE-19 cells): > 25 µM
inhibition at 1 µM (ROS): ≥ 50%
inhibition at 5 µM (ROS): ≥ 50%
inhibition at 2.5 µM (ERK activation (p-ERK)): < 50%

Nc1nc(Nc2ccccc2)nn1Cc1c(Cl)cccc1Cl [MCK268, 1-(2,6-dichlorobenzyl)-N^3-phenyl-1H-1,2,4-triazole-3,5-diamine]
IC50 (ARPE-19 cells): > 25 µM
inhibition at 1 µM (ROS): < 50%
inhibition at 5 µM (ROS): ≥ 50%
inhibition at 2.5 µM (ERK activation (p-ERK)): ≥ 50%

Cc1ccc(Cn2nc(Nc3ccccn3)nc2N)cc1 [MCK279, 1-(4-methylbenzyl)-N^3-(pyridin-2-yl)-1H-1,2,4-triazole-3,5-diamine]
IC50 (ARPE-19 cells): > 25 µM
inhibition at 1 µM (ROS): < 50%
inhibition at 5 µM (ROS): < 50%
inhibition at 2.5 µM (ERK activation (p-ERK)): ≥ 50%

Nc1nc(Nc2ccccc2)nn1CCc1ccccc1 [MCK301, 1-phenethyl-N^3-phenyl-1H-1,2,4-triazole-3,5-diamine]
IC50 (ARPE-19 cells): > 25 µM
inhibition at 1 µM (ROS): < 50%
inhibition at 5 µM (ROS): < 50%
inhibition at 2.5 µM (ERK activation (p-ERK)): < 50%

COC(=O)c1ccc(Nc2nc(N)nn2Cc2cccc(Br)c2)cc1 [MCK347, methyl-4-((3-amino-1-(3-bromobenzyl)-1H-1,2,4-triazol-5-yl)amino)benzoate]
IC50 (ARPE-19 cells): > 25 µM
inhibition at 1 µM (ROS): < 50%
inhibition at 5 µM (ROS): < 50%
inhibition at 2.5 µM (ERK activation (p-ERK)): ≥ 50%

Nc1nc(Nc2ccccc2)nn1Cc1ccc(Cl)cc1 [MCK272, 1-(4-chlorobenzyl)-N^3-phenyl-1H-1,2,4-triazole-3,5-diamine]
IC50 (ARPE-19 cells): > 25 µM
inhibition at 1 µM (ROS): < 50%
inhibition at 5 µM (ROS): ≥ 50%
inhibition at 2.5 µM (ERK activation (p-ERK)): ≥ 50%

Nc1nc(Nc2ccccn2)nn1Cc1cccc([N+](=O)[O-])c1 [MCK292, 1-(3-nitrobenzyl)-N^3-(pyridin-2-yl)-1H-1,2,4-triazole-3,5-diamine]
IC50 (ARPE-19 cells): > 25 µM
inhibition at 1 µM (ROS): < 50%
inhibition at 5 µM (ROS): < 50%
inhibition at 2.5 µM (ERK activation (p-ERK)): ≥ 50%

Nc1nc(Nc2cccnc2)nn1Cc1cccc(Br)c1 [MCK351, 1-(3-bromobenzyl)-N^3-(pyridin-3-yl)-1H-1,2,4-triazole-3,5-diamine]
IC50 (ARPE-19 cells): > 25 µM
inhibition at 1 µM (ROS): < 50%
inhibition at 5 µM (ROS): < 50%
inhibition at 2.5 µM (ERK activation (p-ERK)): ≥ 50%

Nc1nc(Nc2ccccn2)nn1Cc1cccc(Br)c1 [MCK276, 1-(3-bromobenzyl)-N^3-(pyridin-2-yl)-1H-1,2,4-triazole-3,5-diamine]
IC50 (ARPE-19 cells): > 25 µM
inhibition at 1 µM (ROS): < 50%
inhibition at 5 µM (ROS): < 50%
inhibition at 2.5 µM (ERK activation (p-ERK)): ≥ 50%
